# Structures can show the parent of a compound that is named as a salt. Where two headings read alike, the source gives them in different places.
# Assays:
# [1] = test system: fibrin- and LPS-induced microglia activation; assay: cells; assay type: cell-based, rat
# [2] = test system: primary rat microglia;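 on Fibrin % cell toxicity: share of dead cells sized under 150 µm2 at 10 µM in fibrin-stimulated microglia HTS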
# [3] = test system: fibrin-induced microglia activation; assay: Image-based assay of fibrin-induced microglia activation (HTS and dose response); assay type: cell-based, rat; settings: for inhibition at 10 µM: Rattus norvegicus, Microglia, read-out: Fibrin % inhibition
# [4] = test system: primary rat microglia; remark: listed apart in the source;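 on Fibrin % cell toxicity: share of dead cells sized under 150 µm2 at 10 µM in fibrin-stimulated microglia HTS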
# [5] = test system: LPS-induced microglia activation; assay: Image-based assay of LPS-induced microglia activation (HTS and dose response); assay type: cell-based, rat
# [6] = classification by fibrin and LPS inhibition in HTS
# [7] = primary microglia HTS, fibrin stimulation, cell size >800 μm2 as marker of activation
# [8] = Rattus norvegicus, Microglia, read-out: LPS % inhibition
# [9] = Rattus norvegicus, Microglia, 48 h, read-out: LPS % inhibition
# [10] = Rattus norvegicus, Microglia, 48 h; read-out: LPS % inhibition
# [11] = HTS of 1907 compounds, quadrant by fibrin and LPS inhibition
# [12] = primary microglia HTS, 10 μM, fibrin-stimulated, cell size >800 μm^2 as marker of activation
# [13] = Rattus norvegicus, Microglia, primary microglia HTS, 10 μM, LPS-stimulated, cell size >800 μm^2 as marker of activation; read-out: LPS % inhibition
# [14] = primary microglia HTS, fibrin stimulation, compounds at 10 μM
# [15] = Rattus norvegicus, Microglia, primary microglia HTS, LPS stimulation, compounds at 10 μM; read-out: LPS % inhibition
# [16] = primary microglia HTS, 10 μM, LPS-stimulated, cell size >800 μm^2 as marker of activation
# [17] = quadrant by fibrin and LPS inhibition in HTS of 1907 compounds
# [18] = primary microglia HTS, fibrin stimulation, increased cell size (>800 μm^2) as marker of activation
# [19] = Rattus norvegicus, Microglia, 48 h, primary microglia HTS, LPS stimulation; increased cell size (>800 μm^2) as marker of activation; read-out: LPS % inhibition
compound,measurement,setting,value
CCOc1ccccc1OC(c1ccccc1)C1CNCCO1.CS(=O)(=O)O (stereo not drawn) [Reboxetine Mesylate],Quadrant (FIG. 5b),[1]; [6],Q4
same,Fibrin % cell toxicity,[2],1%
same,Fibrin % inhibition,[3]; [7],−33%
same,LPS % cell toxicity,[4],0%
same,LPS % inhibition,"[5]; primary microglia HTS, LPS stimulation, cell size >800 μm2 as marker of activation",8%
CN(C)CCOc1ccc(/C(=C(/CCCl)c2ccccc2)c2ccccc2)cc1 [Toremifene],Quadrant (FIG. 5b),[1],Q4
same,Fibrin % cell toxicity,[2]; rat,1%
same,inhibition at 10 µM,[3],14%
same,LPS % cell toxicity,[4]; rat,0%
same,inhibition at 10 µM,[5]; [8],19%
CC(C)(O)c1ccccc1CC[C@@H](SCC1(CC(=O)O)CC1)c1cccc(/C=C/c2ccc3ccc(Cl)cc3n2)c1 [Montelukast],Quadrant (FIG. 5b),[1],Q4
same,Fibrin % cell toxicity,[2]; rat,1%
same,Fibrin % inhibition,[3],−5%
same,LPS % cell toxicity,[4]; rat,0%
same,inhibition at 10 µM,[5]; [9],12%
"CCCN1CCCC[C@H]1C(=O)Nc1c(C)cccc1C [Ropivacaine, Ropivacaine Hydrochloride]",Quadrant (FIG. 5b),[1]; [6],Q4
same,Fibrin % cell toxicity,[2],1%
same,Fibrin % inhibition,[3]; [7],18%
same,LPS % cell toxicity,[4],0%
same,LPS % inhibition,[5],5%
CC(C)NCC(O)c1ccc2ccccc2c1 (stereo not drawn) [Pronetalol Hydrochloride],Quadrant (FIG. 5b),[1]; [6],Q4
same,Fibrin % cell toxicity,[2]; rat,1%
same,inhibition at 10 µM,[3]; [7],-12%
same,LPS % cell toxicity,[4]; rat,0%
same,inhibition at 10 µM,[5]; [10],10%
Clc1ccccc1C(c1ccccc1)(c1ccccc1)n1ccnc1 [Clotrimazole],Quadrant (FIG. 5b),[1],Q4
same,Fibrin % cell toxicity,[2]; rat,1%
same,inhibition at 10 µM,[3],-13%
same,LPS % cell toxicity,[4]; rat,0%
same,inhibition at 10 µM,[5]; [8],13%
N[C@@H](Cc1c[nH]c2ccccc12)C(=O)O [Tryptophan],Quadrant (FIG. 5b),[1]; [11],Q4
same,Fibrin % cell toxicity,[2]; rat,1%
same,inhibition at 10 µM,[3]; [12],-6%
same,LPS % cell toxicity,[4]; rat,0%
same,inhibition at 10 µM,[5]; [13],16%
C=CCN1CC[C@]23c4c5ccc(O)c4O[C@H]2C(=O)CC[C@@]3(O)[C@H]1C5 [Naloxone],Quadrant (FIG. 5b),[1],Q4
same,Fibrin % cell toxicity,[2]; rat,1%
same,Fibrin % inhibition,[3],−41%
same,LPS % cell toxicity,[4]; rat,1%
same,inhibition at 10 µM,[5]; [9],21%
O=C(O)CC(O)(CC(=O)O)C(=O)O [Citric Acid],Quadrant (FIG. 5b),[1],Q4
same,Fibrin % cell toxicity,[2]; rat,1%
same,inhibition at 10 µM,[3],-36%
same,LPS % cell toxicity,[4]; rat,0%
same,inhibition at 10 µM,[5]; [8],-6%
Cc1cc(=O)oc2cc(O)ccc12 [7-hydroxy-4-methyl-2H-chromen-2-one],Quadrant (FIG. 5b),"[1]; quadrant by fibrin and LPS inhibition, HTS at 10 μM",Q4
same,Fibrin % cell toxicity,[2]; rat,0%
same,inhibition at 10 µM,[3]; [14],12%
same,LPS % cell toxicity,[4]; rat,0%
same,inhibition at 10 µM,[5]; [15],4%
CC(=O)[C@H]1CC[C@H]2[C@@H]3CC=C4C[C@@H](OC(=O)CCC(=O)O)CC[C@]4(C)[C@H]3CC[C@]12C [Pregnenolone Succinate],Quadrant (FIG. 5b),[1]; [6],Q4
same,Fibrin % cell toxicity,[2]; rat,1%
same,inhibition at 10 µM,[3]; [7],4%
same,LPS % cell toxicity,[4]; rat,1%
same,inhibition at 10 µM,[5]; [10],21%
CS(=O)(=O)OCCCCOS(C)(=O)=O [Busulfan],Quadrant (FIG. 5b),"[1]; primary HTS, 10 μM",Q4
same,Fibrin % cell toxicity,[2]; rat,0%
same,inhibition at 10 µM,"[3]; primary HTS, 10 μM, fibrin-stimulated primary microglia",1%
same,LPS % cell toxicity,[4]; rat,0%
same,inhibition at 10 µM,"[5]; Rattus norvegicus, Microglia, primary HTS, 10 μM, LPS-stimulated primary microglia; read-out: LPS % inhibition",2%
CC[N+](C)(C)Cc1ccccc1Br [Bretylium],Quadrant (FIG. 5b),[1],Q4
same,Fibrin % cell toxicity,[2]; rat,0%
same,inhibition at 10 µM,[3],-26%
same,LPS % cell toxicity,[4]; rat,0%
same,inhibition at 10 µM,[5]; [8],-9%
"CC(=O)O[C@H]1C(=O)[C@@]2(C)[C@H]([C@H](OC(=O)c3ccccc3)[C@]3(O)C[C@H](OC(=O)[C@H](O)[C@@H](NC(=O)c4ccccc4)c4ccccc4)C(C)=C1C3(C)C)[C@]1(OC(C)=O)CO[C@@H]1C[C@@H]2O [Taxol, Paclitaxel]",Quadrant (FIG. 5b),[1]; [11],Q4
same,Fibrin % cell toxicity,[2],1%
same,Fibrin % inhibition,[3]; [12],45%
same,LPS % cell toxicity,[4],1%
same,LPS % inhibition,[5]; [16],19%
CC(C)C[C@H](NC(=O)[C@H](Cc1ccccc1)NC(=O)c1cnccn1)B(O)O [Bortezomib],Quadrant (FIG. 5b),[1]; [17],Q2
same,Fibrin % cell toxicity,[2]; rat,86%
same,inhibition at 10 µM,[3]; [18],106%
same,LPS % cell toxicity,[4]; rat,56%
same,inhibition at 10 µM,[5]; [19],106%
O=C1CN(/N=C/c2ccc([N+](=O)[O-])o2)C(=O)N1 [Nitrofurantoin],Quadrant (FIG. 5b),[1],Q4
same,Fibrin % cell toxicity,[2]; rat,1%
same,inhibition at 10 µM,[3],-3%
same,LPS % cell toxicity,[4]; rat,0%
same,inhibition at 10 µM,[5]; [9],11%
O=c1n(Cl)c(=O)n(Cl)c(=O)n1Cl [Symclosene],Quadrant (FIG. 5b),[1]; [11],Q4
same,Fibrin % cell toxicity,[2]; rat,0%
same,inhibition at 10 µM,[3]; [12],-13%
same,LPS % cell toxicity,[4]; rat,0%
same,inhibition at 10 µM,[5]; [13],11%
CC(Cc1ccc(O)cc1)NCC(O)c1cc(O)cc(O)c1 (stereo not drawn) [Fenoterol],Quadrant (FIG. 5b),[1]; [17],Q4
same,Fibrin % cell toxicity,[2]; rat,0%
same,inhibition at 10 µM,"[3]; primary microglia HTS, fibrin stimulation, activation = cell size >800 μm2",40%
same,LPS % cell toxicity,[4]; rat,0%
same,inhibition at 10 µM,"[5]; Rattus norvegicus, Microglia, 48 h, primary microglia HTS, LPS stimulation, activation = cell size >800 μm2; read-out: LPS % inhibition",26%
"COc1cc2c(c(OC)c1OC)-c1ccc(OC)c(=O)cc1[C@@H](NC(C)=O)CC2 [Colchicine, reference compound]",Activity,[1],fib/LPS
same,Quadrant (FIG. 5b),[1],Q2
same,Fibrin % cell toxicity,[2]; rat,12%
same,inhibition at 10 µM,[3],114%
same,LPS % cell toxicity,[4]; rat,10%
same,inhibition at 10 µM,[5]; [9],113%
CNNCc1ccc(C(=O)NC(C)C)cc1 [Procarbazine],Quadrant (FIG. 5b),[1]; [6],Q4
same,Fibrin % cell toxicity,[2]; rat,1%
same,inhibition at 10 µM,[3]; [7],-21%
same,LPS % cell toxicity,[4]; rat,0%
same,inhibition at 10 µM,[5]; [10],9%
Cn1cnc([N+](=O)[O-])c1Sc1ncnc2nc[nH]c12 [Azathioprine],Quadrant (FIG. 5b),[1],Q4
same,Fibrin % cell toxicity,[2]; rat,0%
same,inhibition at 10 µM,[3],-14%
same,LPS % cell toxicity,[4]; rat,0%
same,inhibition at 10 µM,[5]; [8],16%
COc1cc([C@@H]2c3cc4c(cc3[C@H](O)[C@H]3COC(=O)[C@H]23)OCO4)cc(OC)c1OC [Podofilox/Podophyllotoxin],Quadrant (FIG. 5b),[1]; [17],Q2
same,Fibrin % cell toxicity,[2],8%
same,Fibrin % inhibition,[3]; [18],110%
same,LPS % cell toxicity,[4],9%
same,LPS % inhibition,"[5]; primary microglia HTS, LPS stimulation; increased cell size (>800 μm^2) as marker of activation",107%
CCCCCCCCCCCCCCCC(=O)OC/C=C(C)/C=C/C=C(C)/C=C/C1=C(C)CCCC1(C)C [Retinyl Palmitate],Quadrant (FIG. 5b),[1]; [6],Q4
same,Fibrin % cell toxicity,[2]; rat,0%
same,inhibition at 10 µM,[3]; [7],-15%
same,LPS % cell toxicity,[4]; rat,0%
same,inhibition at 10 µM,[5]; [10],11%
CN1CCC(=C2c3ccccc3C=Cc3ccccc32)CC1 [Cyproheptadine],Quadrant (FIG. 5b),[1],Q4
same,Fibrin % cell toxicity,[2]; rat,1%
same,inhibition at 10 µM,[3],24%
same,LPS % cell toxicity,[4]; rat,1%
same,inhibition at 10 µM,[5]; [8],43%
CC(C)(S)[C@@H](N)C(=O)O [Penicillamine],Quadrant (FIG. 5b),[1]; [6],Q4
same,Fibrin % cell toxicity,[2]; rat,0%
same,inhibition at 10 µM,[3]; [7],-15%
same,LPS % cell toxicity,[4]; rat,0%
same,inhibition at 10 µM,[5]; [10],16%
Vitamin A,Quadrant (FIG. 5b),[1]; [11],Q4
same,Fibrin % cell toxicity,[2],1%
same,Fibrin % inhibition,[3]; [12],15%
same,LPS % cell toxicity,[4],0%
same,LPS % inhibition,[5]; [16],17%
CC(C)(C(=O)c1cccnc1)c1cccnc1 [Metyrapone],Quadrant (FIG. 5b),[1]; [17],Q4
same,Fibrin % cell toxicity,[2]; rat,1%
same,inhibition at 10 µM,[3]; [18],-60%
same,LPS % cell toxicity,[4]; rat,0%
same,inhibition at 10 µM,[5]; [19],39%
OC(CCN1CCCCC1)(c1ccccc1)C1CCCCC1 (stereo not drawn) [Trihexyphenidyl],Quadrant (FIG. 5b),[1],Q4
same,Fibrin % cell toxicity,[2]; rat,1%
same,inhibition at 10 µM,[3],5%
same,LPS % cell toxicity,[4]; rat,1%
same,inhibition at 10 µM,[5]; [8],14%
O=P1(N(CCCl)CCCl)NCCCO1 (stereo not drawn),Quadrant (FIG. 5b),[1],Q4
same,Fibrin % cell toxicity,[2],0%
same,Fibrin % inhibition,[3]; 10 µM,−15%
same,LPS % cell toxicity,[4],0%
same,LPS % inhibition,[5]; 10 µM,12%
O=c1oc2c(O)c(O)cc3c(=O)oc4c(O)c(O)cc1c4c23 [Ellagic Acid],Quadrant (FIG. 5b),"[1]; classification by fibrin and LPS inhibition, HTS at 10 μM",Q4
same,Fibrin % cell toxicity,[2]; rat,1%
same,inhibition at 10 µM,[3]; [14],-5%
same,LPS % cell toxicity,[4]; rat,0%
same,inhibition at 10 µM,[5]; [15],24%
NC1=NCC2c3ccccc3Cc3ccccc3N12 (stereo not drawn) [Epinastine],Quadrant (FIG. 5b),[1],Q4
same,Fibrin % cell toxicity,[2]; rat,1%
same,inhibition at 10 µM,[3],-38%
same,LPS % cell toxicity,[4]; rat,0%
same,inhibition at 10 µM,[5]; [8],-15%

# Reference: US20210330611A1, “THERAPY FOR NEUROLOGICAL DISEASES/DISORDERS” (priority 2020, published 2021)
